Data as given in patent US8551984B2, “Aminopyrimidines as SYK inhibitors” (Merck Sharp & Dohme Corp., priority 2009, dated 2013).

biological target: recombinant human SYK (GST-hSYK fusion protein) (Homo sapiens, UniProt P43405); experiment: not given; conditions: read-out: rhSYK Activity; Table 113A

Structure (SMILES)	IC50
Cc1cc(Nc2nccc(C)n2)cc(-c2cnc(C3(O)CCC(C(=O)O)C(C)C3C)s2)c1 (centres unmarked) [Example 113A-68]	< 100 nM
Cc1cc(Nc2nccc(C)n2)cc(-c2cnc(C3(O)CCC(C(=O)O)C(C)C3C)s2)c1 (centres unmarked) [Example 113A-69]	< 100 nM
CCOC(=O)C1CCC(O)(c2ncc(-c3cc(C)cc(Nc4nccc(C)n4)c3)s2)C(C)C1C (centres unmarked) [Example 113A-72]	< 100 nM
Cc1cc(Nc2nccc(C)n2)cc(-c2cnc(C3(O)CCC(C(=O)O)CC3C)s2)c1 (centres unmarked) [Example 113A-81]	< 100 nM
Cc1cc(Nc2nccc(C)n2)cc(-c2cnc(C3(O)CCC(C(=O)O)CC3C)s2)c1 (centres unmarked) [Example 113A-83]	< 100 nM
Cc1cc(Nc2nccc(C)n2)cc(-c2cnc(C3(O)CCC(C(=O)O)CC3C)s2)c1 (centres unmarked) [Example 113A-84]	< 100 nM
Cc1cc(Nc2nccc(C)n2)cc(-c2cnc(C3(O)CCC(C(=O)O)CC3C)s2)c1 (centres unmarked) [Example 113A-85]	< 100 nM
Cc1cc(Nc2nccc(C)n2)cc(-c2cnc(C3(O)CCC(C(=O)O)CC3O)s2)c1 (centres unmarked) [Example 113A-91]	< 100 nM

Results, then the compound that gave them:

IC50	Structure (SMILES)
< 100 nM	CCOC(=O)C1CCC(O)(c2ncc(-c3cc(C)cc(Nc4nccc(C)n4)c3)s2)C(C)C1C (centres unmarked) [Example 113A-71]
< 100 nM	CCOC(=O)C1CCC(O)(c2ncc(-c3cc(C)cc(Nc4nccc(C)n4)c3)s2)C(C)C1C (centres unmarked) [Example 113A-73]
< 100 nM	Cc1cc(Nc2nccc(C)n2)cc(-c2cnc(C3(O)CCC(C(=O)O)CC3C)s2)c1 (centres unmarked) [Example 113A-82]
< 100 nM	Cc1cc(Nc2nccc(C)n2)cc(-c2cnc(C3(O)CCC(C(=O)O)CC3C)s2)c1 (centres unmarked) [Example 113A-86]

same assay, conditions: read-out: rhSYK Activity; Table 113B

Structure (SMILES)	IC50
Cc1cc(Nc2nccc(C)n2)cc(-c2cnc(C3(O)CC(C)C(C(=O)O)CC3C)s2)c1 (centres unmarked) [Example 113B-1]	< 100 nM
Cc1cc(Nc2nccc(C)n2)cc(-c2cnc(C3(O)CC(C)C(C(=O)O)CC3C)s2)c1 (centres unmarked) [Example 113B-2]	< 100 nM
Cc1cc(Nc2nccc(C)n2)cc(-c2cnc(C3(O)CC(C)C(C(=O)O)CC3C)s2)c1 (centres unmarked) [Example 113B-5]	< 100 nM
Cc1cc(Nc2nccc(C)n2)cc(-c2cnc(C3(O)CC(C)C(C(=O)O)C(C)C3)s2)c1 (centres unmarked) [Example 113B-22]	< 100 nM
Cc1cc(Nc2nccc(C(F)(F)F)n2)cc(-c2cnc(C3(O)CC(C)C(C(=O)O)C(C)C3)s2)c1 (centres unmarked) [Example 113B-25]	< 100 nM

Results, then the compound that gave them:

IC50	Structure (SMILES)
< 100 nM	Cc1cc(Nc2nccc(C)n2)cc(-c2cnc(C3(O)CC(C)C(C(=O)O)CC3C)s2)c1 (centres unmarked) [Example 113B-4]
< 100 nM	Cc1cc(Nc2nccc(C)n2)cc(-c2cnc(C3(O)CC(C)C(C(=O)O)CC3C)s2)c1 (centres unmarked) [Example 113B-6]
< 100 nM	Cc1cc(Nc2nccc(C(F)(F)F)n2)cc(-c2cnc(C3(O)CC(C)C(C(=O)O)CC3C)s2)c1 (centres unmarked) [Example 113B-13]
< 100 nM	Cc1cc(Nc2nccc(C(F)(F)F)n2)cc(-c2cnc(C3(O)CC(C)C(C(=O)O)CC3C)s2)c1 (centres unmarked) [Example 113B-14]
< 100 nM	Cc1cc(Nc2nccc(C(F)(F)F)n2)cc(-c2cnc(C3(O)CC(C)C(C(=O)O)CC3C)s2)c1 (centres unmarked) [Example 113B-15]
< 100 nM	Cc1cc(Nc2nccc(C(F)(F)F)n2)cc(-c2cnc(C3(O)CC(C)C(C(=O)O)CC3C)s2)c1 (centres unmarked) [Example 113B-16]

same assay, conditions: read-out: rhSYK Activity; Table 113D, upper part

IC50	Structure (SMILES)
< 100 nM	Cc1cc(Nc2nccc(C(F)(F)F)n2)cc(-c2cnc(C(C)(O)c3ccc(C(=O)O)cn3)s2)c1 (centres unmarked) [Example 113D-6]

biological target: rhSYK (Homo sapiens, UniProt P43405); experiment: biochemical; conditions: not given

Structure (SMILES)	IC50
Cc1cc(Nc2nccc(C(F)(F)F)n2)cc(-c2cnc(C3(O)CCC(C(N)=O)C(C)C3)s2)c1 (single isomer, unassigned) [Example 119-111]	< 100 nM
Cc1cc(Nc2nccc(C(F)(F)F)n2)cc(-c2cnc(C3(O)CC(C(N)=O)C3)s2)c1 (centres unmarked) [Example 117-1]	< 100 nM
Cc1cc(Nc2nccc(C)n2)cc(-c2cnc(C3(O)CCC(C(N)=O)C4CCCCC43)s2)c1 (centres unmarked) [Example 117-2]	< 100 nM
Cc1cc(Nc2nccc(C(F)(F)F)n2)cc(-c2cnc([C@H]3CC[C@H](C(N)=O)CC3)s2)c1 [Example 117-5]	< 100 nM
Cc1cc(Nc2nccc(C(F)(F)F)n2)cc(-c2cnc(C3(O)CCN(c4ncccc4C(N)=O)CC3)s2)c1 [Example 117-6]	< 100 nM
Cc1cc(Nc2nccc(C(F)(F)F)n2)cc(-c2cnc(C3(O)CCN(CCCC(N)=O)CC3)s2)c1 [Example 117-7]	< 100 nM
Cc1cc(Nc2nccc(C(F)(F)F)n2)cc(-c2cnc(C3(O)CCC(CC(N)=O)CC3)s2)c1 (centres unmarked) [Example 117-8]	< 100 nM
Cc1cc(Nc2nccc(C(F)(F)F)n2)cc(-c2cnc([C@]3(O)CC[C@@H](CCC(N)=O)CC3)s2)c1 [Example 117-11]	< 100 nM
CCC(CO)NC(=O)CCc1ncc(-c2cc(C)cc(Nc3nccc(C(F)(F)F)n3)c2)s1 (centres unmarked) [Example 117-15]	< 100 nM
COC(=O)C(CC(C)C)NC(=O)CCc1ncc(-c2cc(C)cc(Nc3nccc(C(F)(F)F)n3)c2)s1 (centres unmarked) [Example 117-19]	100 to 1000 nM
Cc1cc(Nc2nccc(C(F)(F)F)n2)cc(-c2cnc([C@@]3(O)CC[C@H](C(N)=O)C(C)(C)C3)s2)c1Br [Example 117-22]	< 100 nM
Cc1cc(Nc2nccc(C)n2)cc(-c2cnc(C3(O)CCC(C(N)=O)C(C)(C)C3)s2)c1 (centres unmarked) [Example 119-7]	< 100 nM
Cc1cc(Nc2nccc(C(C)(C)C)n2)cc(-c2cnc(C3(O)CCC(C(N)=O)CC3)s2)c1 (centres unmarked) [Example 119-9]	< 100 nM
Cc1cc(Nc2nccc(OCCO)n2)cc(-c2cnc(C3(O)CCC(C(N)=O)CC3)s2)c1 (centres unmarked) [Example 119-14]	< 100 nM
CNC(=O)C1CCC(O)(c2ncc(-c3cc(C)cc(Nc4nccc(C(F)(F)F)n4)c3)s2)CC1 (centres unmarked) [Example 119-15]	< 100 nM
Cc1cc(Nc2nccc(C(F)(F)F)n2)cc(-c2cnc([C@]3(O)CC[C@@H](C(=O)N(C)C)CC3)s2)c1 [Example 119-17]	< 100 nM
Cc1cc(Nc2nccc(C(F)(F)F)n2)cc(-c2cnc(C3(O)CCC(C(=O)NCC#N)CC3)s2)c1 (centres unmarked) [Example 119-18]	< 100 nM
Cc1cc(Nc2nccc(C(F)(F)F)n2)cc(-c2cnc([C@]3(O)CC[C@@H](C(=O)N4CCC4)CC3)s2)c1 [Example 119-19]	< 100 nM
Cc1cc(Nc2nccc(C(F)(F)F)n2)cc(-c2cnc([C@]3(O)CC[C@@H](C(=O)NC(C)C)CC3)s2)c1 [Example 119-20]	< 100 nM
Cc1cc(Nc2nccc(C(F)(F)F)n2)cc(-c2cnc([C@]3(O)CC[C@@H](C(=O)NCC4CC4)CC3)s2)c1 [Example 119-23]	< 100 nM
Cc1cc(Nc2nccc(C(F)(F)F)n2)cc(-c2cnc([C@]3(O)CC[C@@H](C(=O)N4CCCC4)CC3)s2)c1 [Example 119-24]	< 100 nM
COCCNC(=O)[C@H]1CC[C@](O)(c2ncc(-c3cc(C)cc(Nc4nccc(C(F)(F)F)n4)c3)s2)CC1 [Example 119-25]	< 100 nM
Cc1cc(Nc2nccc(C(F)(F)F)n2)cc(-c2cnc([C@]3(O)CC[C@@H](C(=O)NCC(=O)O)CC3)s2)c1 [Example 119-26]	< 100 nM

Further lines, results first:

IC50	Structure (SMILES)
< 100 nM	Cc1cc(Nc2nccc(C(F)(F)F)n2)cc(-c2cnc(C(C)(O)c3ccc(C(N)=O)cc3)s2)c1 (single isomer, unassigned) [Example 117-20]
< 100 nM	Cc1cc(Nc2nccc(C(F)(F)F)n2)cc(-c2cnc(C3(O)CCC(C(N)=O)C3)s2)c1 (single isomer, unassigned) [Example 119-2]
< 100 nM	Cc1cc(Nc2nccc(C)n2)cc(-c2cnc(C3(O)CCC(C(N)=O)C(C)C3)s2)c1 (single isomer, unassigned) [Example 119-5]
< 100 nM	Cc1cc(Nc2ncc(F)c(C)n2)cc(-c2cnc(C3(O)CCC4(CC3)OCCO4)s2)c1 [Example 116B-1]
< 100 nM	Cc1cc(Nc2ncc(Cl)c(C)n2)cc(-c2cnc(C3(O)CCC4(CC3)OCCO4)s2)c1 [Example 116B-2]
< 100 nM	Cc1cc(Nc2nccc(C(F)(F)F)n2)cc(-c2cnc([C@H]3CC[C@@H](C(N)=O)CC3)s2)c1 [Example 117-4]
< 100 nM	Cc1cc(Nc2nccc(C(F)(F)F)n2)cc(-c2cnc([C@]3(O)CC[C@H](CCC(N)=O)CC3)s2)c1 [Example 117-12]
< 100 nM	Cc1cc(Nc2nccc(C(C)C)n2)cc(-c2cnc(C3(O)CCCN(C(=O)CC(N)=O)CC3)s2)c1 (centres unmarked) [Example 117-13]
< 100 nM	Cc1cc(Nc2nccc(OCCO)n2)cc(-c2cnc(CCC(N)=O)s2)c1 [Example 117-14]
< 100 nM	CCOC(=O)CNC(=O)CCc1ncc(-c2cc(C)cc(Nc3nccc(C(F)(F)F)n3)c2)s1 [Example 117-16]
< 100 nM	COC(=O)C(C)NC(=O)CCc1ncc(-c2cc(C)cc(Nc3nccc(C(F)(F)F)n3)c2)s1 (centres unmarked) [Example 117-17]
< 100 nM	COC(=O)CCNC(=O)CCc1ncc(-c2cc(C)cc(Nc3nccc(C(F)(F)F)n3)c2)s1 [Example 117-18]
< 100 nM	Cc1cc(Nc2nccc(C(C)C)n2)cc(-c2cnc([C@]3(O)CC[C@@H](C(N)=O)CC3)s2)c1 [Example 119-8]
< 100 nM	Cc1cc(Nc2nccc(C(C)C)n2)cc(-c2cnc(C3(O)CCC(C(N)=O)C(C)C3)s2)c1 (centres unmarked) [Example 119-10]
< 100 nM	CCN(C)C(=O)[C@H]1CC[C@](O)(c2ncc(-c3cc(C)cc(Nc4nccc(C(F)(F)F)n4)c3)s2)CC1 [Example 119-21]
< 100 nM	Cc1cc(Nc2nccc(C(F)(F)F)n2)cc(-c2cnc([C@]3(O)CC[C@@H](C(=O)NCCO)CC3)s2)c1 [Example 119-22]
< 100 nM	Cc1cc(Nc2nccc(C(F)(F)F)n2)cc(-c2cnc([C@]3(O)CC[C@@H](C(=O)Nc4ncc[nH]4)CC3)s2)c1 [Example 119-27]
< 100 nM	Cc1cc(Nc2nccc(C(F)(F)F)n2)cc(-c2cnc(C3(O)CCC(C(=O)N(C)CCC#N)CC3)s2)c1 (centres unmarked) [Example 119-28]
< 100 nM	Cc1cc(Nc2nccc(C(F)(F)F)n2)cc(-c2cnc([C@]3(O)CC[C@@H](C(=O)N4CCOCC4)CC3)s2)c1 [Example 119-29]
< 100 nM	Cc1cc(Nc2nccc(C(F)(F)F)n2)cc(-c2cnc(C3(O)CCC(C(=O)NCCC(N)=O)CC3)s2)c1 (centres unmarked) [Example 119-30]
< 100 nM	COCCCNC(=O)[C@H]1CC[C@](O)(c2ncc(-c3cc(C)cc(Nc4nccc(C(F)(F)F)n4)c3)s2)CC1 [Example 119-31]
